Experimental data taken from publication PMC3814370, “Functional assignment of KEOPS/EKC complex subunits in the biosynthesis of the universal t^6A tRNA modification” (Nucleic Acids Research, 2013).

Legend:
Type in all cases: biochemical
[1] = target: T1, PaKEOPS (Pcc1-Kae1-Bud32-Cgi121) (Pyrococcus abyssi, UniProt Q9UYB9); test: TLC of radiolabelled ATP hydrolysis; settings: 100 uM ATP, 50 °C, 30 min, with or without tRNA; reconstituted complex; labelled compound
T1 construct: recombinant from E. coli Rosetta2, His-tag purification; whole complex or reconstituted from Pcc1-Kae1 plus Bud32-Cgi121; homodimer of the heterotetramer; with tRNA N6-adenosine threonylcarbamoyltransferase; KEOPS complex Pcc1-like subunit; Regulatory protein Cgi121

[2] = target: T1, PaKEOPS (Pcc1-Kae1-Bud32-Cgi121); test: TLC of radiolabelled ATP hydrolysis; settings: 100 uM ATP, 50 °C, 30 min, with or without tRNA; reconstituted complex; labelled compound; remark: listed apart in the source
[3] = target: T2, PaKEOPS (Pcc1-Kae1-Bud32-Cgi121) (Pyrococcus abyssi, UniProt Q9UYB9, D127R); test: TLC of radiolabelled ATP hydrolysis; settings: 100 uM ATP, 50 °C, 30 min, with or without tRNA; reconstituted complex; labelled compound
T2 construct: recombinant from E. coli Rosetta2, His-tag purification; whole complex or reconstituted from Pcc1-Kae1 plus Bud32-Cgi121; homodimer of the heterotetramer; with tRNA N6-adenosine threonylcarbamoyltransferase; KEOPS complex Pcc1-like subunit; Regulatory protein Cgi121

[4] = target: T3, Kae1-Bud32 binary complex (Pyrococcus abyssi, UniProt Q9UYB9); test: TLC of radiolabelled ATP hydrolysis; settings: 100 uM ATP, 50 °C, 30 min; independent of tRNA; labelled compound
T3 construct: recombinant from E. coli Rosetta2, His-tag purification; binary complex, monomeric form; with tRNA N6-adenosine threonylcarbamoyltransferase

[5] = target: T1, PaKEOPS (Pcc1-Kae1-Bud32-Cgi121); test: TLC of radiolabelled ATP hydrolysis; settings: 100 uM ATP, 50 °C, 30 min; stimulated by tRNA; labelled compound
[6] = target: T4, Kae1-Bud32-Cgi121 ternary complex (Pyrococcus abyssi, UniProt Q9UYB9); test: TLC of radiolabelled ATP hydrolysis; settings: 100 uM ATP, 50 °C, 30 min; independent of tRNA; labelled compound
T4 construct: recombinant from E. coli Rosetta2, His-tag purification; ternary complex, monomeric form; with tRNA N6-adenosine threonylcarbamoyltransferase; Regulatory protein Cgi121

[7] = target: T5, Bud32-Cgi121 binary complex (Pyrococcus abyssi, UniProt Q9UYB9); test: autophosphorylation with gamma-32P ATP, SDS-PAGE phosphorimaging; settings: 25 uM cold ATP, 55 °C, 30 min; no ATPase activity in TLC assay; labelled compound
T5 construct: recombinant from E. coli Rosetta2, His-tag purification; binary complex, monomeric form; with Regulatory protein Cgi121
T5 sequence (Q9UYB9 1-220): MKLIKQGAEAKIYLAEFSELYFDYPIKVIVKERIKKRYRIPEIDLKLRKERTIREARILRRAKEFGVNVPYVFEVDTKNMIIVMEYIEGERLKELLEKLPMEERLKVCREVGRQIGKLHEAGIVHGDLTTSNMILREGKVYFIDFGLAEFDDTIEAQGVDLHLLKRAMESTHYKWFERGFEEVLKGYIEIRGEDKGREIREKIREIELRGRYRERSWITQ
T5 sequence (Q9UZ62 1-171 partner): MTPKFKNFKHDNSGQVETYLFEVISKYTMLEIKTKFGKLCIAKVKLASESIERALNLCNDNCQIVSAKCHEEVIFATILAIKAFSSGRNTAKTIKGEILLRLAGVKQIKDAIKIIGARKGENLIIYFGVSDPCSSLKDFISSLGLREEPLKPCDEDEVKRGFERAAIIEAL

Nc1ncnc2c1ncn2[C@@H]1O[C@H](COP(=O)(O)OP(=O)(O)OP(=O)(O)O)[C@@H](O)[C@H]1O [ATP]
wild-type ATPase activity [1]: PaKEOPS (Kae1^D159A) behaved in the same manner as the wild-type PaKEOPS
normal ATPase activity [2]: the reconstituted mutant PaKEOPS exhibited normal ATPase activity
ATPase activity totally lost [3]: PaKEOPS (Bud32^D127R) totally lost the ATPase activity
ATPase activity [4]: binary complex Kae1–Bud32 exhibited a significant ATPase activity
ATPase activity [5]: the ATPase activity of the whole PaKEOPS complex is stimulated by the presence of tRNA
ATPase activity [6]: we recorded a significant ATPase activity that was independent of tRNA
autophosphorylation [7]: When the reaction mixture contained only Bud32–Cgi121, a significant autophosphorylation activity of Bud32 was observed
